Data reported in ChEMBL document CHEMBL5724914, “Linking interpersonal differences in gut microbiota composition and drug biotransformation activity” (2024).

What was measured:
Conditions in all cases: 2 µM
[1] = (§1) The drug is tested on Z-027 corresponding to metagenome with ENA study accession number: PRJEB37062 and ENA sample accession number: ERS12561826 for biotransformation under anaerobic condition. The drug concentrations were measured over 9 timepoints collected between 0 and 24 hours of incubation by liquid-chromatography-coupled mass spectrometry (LC–MS)
[2] = (§2) The drug is tested on Z-018 corresponding to pig gut metagenome with ENA study accession number: PRJEB37062 and ENA sample accession number: ERS12561817 for biotransformation under anaerobic condition. The drug concentrations were measured over 9 timepoints collected between 0 and 24 hours of incubation by liquid-chromatography-coupled mass spectrometry (LC–MS)
[3] = as §2, with “Z-022” for “Z-018”, “mouse” for “pig”, “ERS12561821” for “ERS12561817”
[4] = as §1, with “Z-026” for “Z-027”, “ERS12561825” for “ERS12561826”
[5] = as §2, with “Z-007” for “Z-018”, “rat” for “pig”, “ERS12561807” for “ERS12561817”
[6] = as §2, with “Z-025” for “Z-018”, “rabbit” for “pig”, “ERS12561824” for “ERS12561817”
[7] = as §2, with “Z-002” for “Z-018”, “rabbit” for “pig”, “ERS12561802” for “ERS12561817”
[8] = as §1, with “Z-004” for “Z-027”, “ERS12561804” for “ERS12561826”
[9] = as §2, with “Z-006” for “Z-018”, “mouse” for “pig”, “ERS12561806” for “ERS12561817”
[10] = as §1, with “Z-005” for “Z-027”, “ERS12561805” for “ERS12561826”
[11] = as §2, with “Z-017” for “Z-018”, “mouse” for “pig”, “ERS12561816” for “ERS12561817”
[12] = as §2, with “Z-003” for “Z-018”, “ERS12561803” for “ERS12561817”
[13] = as §2, with “Z-030” for “Z-018”, “mouse” for “pig”, “ERS12561829” for “ERS12561817”
[14] = as §2, with “Z-011” for “Z-018”, “mouse” for “pig”, “ERS12561811” for “ERS12561817”
[15] = as §2, with “Z-024” for “Z-018”, “ERS12561823” for “ERS12561817”
[16] = as §2, with “Z-020” for “Z-018”, “rabbit” for “pig”, “ERS12561819” for “ERS12561817”
[17] = as §2, with “Z-014” for “Z-018”, “rat” for “pig”, “ERS12561814” for “ERS12561817”
[18] = as §2, with “Z-009” for “Z-018”, “ERS12561809” for “ERS12561817”
[19] = as §2, with “Z-001” for “Z-018”, “mouse” for “pig”, “ERS12561801” for “ERS12561817”
[20] = as §2, with “Z-028” for “Z-018”, “mouse” for “pig”, “ERS12561827” for “ERS12561817”
[21] = as §1, with “Z-012” for “Z-027”, “ERS12561812” for “ERS12561826”
[22] = as §2, with “Z-013” for “Z-018”, “rabbit” for “pig”, “ERS12561813” for “ERS12561817”
[23] = as §1, with “Z-021” for “Z-027”, “ERS12561820” for “ERS12561826”
[24] = as §1, with “Z-008” for “Z-027”, “ERS12561808” for “ERS12561826”
[25] = as §2, with “Z-019” for “Z-018”, “rat” for “pig”, “ERS12561818” for “ERS12561817”
[26] = as §1, with “Z-010” for “Z-027”, “ERS12561810” for “ERS12561826”
[27] = as §2, with “Z-016” for “Z-018”, “mouse” for “pig”, “ERS12561815” for “ERS12561817”
[28] = as §1, with “Z-023” for “Z-027”, “ERS12561822” for “ERS12561826”
[29] = as §2, with “Z-029” for “Z-018”, “rat” for “pig”, “ERS12561828” for “ERS12561817”
Also: call rule not given here.

- Bacterial Biotransformation [1]: Compound NOT metabolized
- Bacterial Biotransformation [2]: Compound metabolized
- Bacterial Biotransformation [3]: Compound metabolized
- Bacterial Biotransformation [4]: Compound metabolized
- Bacterial Biotransformation [5]: Compound metabolized
- Bacterial Biotransformation [6]: Compound metabolized
- Bacterial Biotransformation [7]: Compound metabolized
- Bacterial Biotransformation [8]: Compound metabolized
- Bacterial Biotransformation [9]: Compound metabolized
- Bacterial Biotransformation [10]: Compound metabolized
- Bacterial Biotransformation [11]: Compound metabolized
- Bacterial Biotransformation [12]: Compound metabolized
- Bacterial Biotransformation [13]: Compound metabolized
- Bacterial Biotransformation [14]: Compound metabolized
- Bacterial Biotransformation [15]: Compound metabolized
- Bacterial Biotransformation [16]: Compound metabolized
- Bacterial Biotransformation [17]: Compound metabolized
- Bacterial Biotransformation [18]: Compound metabolized
- Bacterial Biotransformation [19]: Compound metabolized
- Bacterial Biotransformation [20]: Compound metabolized
- Bacterial Biotransformation [21]: Compound metabolized
- Bacterial Biotransformation [22]: Compound metabolized
- Bacterial Biotransformation [23]: Compound metabolized
- Bacterial Biotransformation [24]: Compound metabolized
- Bacterial Biotransformation [25]: Compound metabolized
- Bacterial Biotransformation [26]: Compound metabolized
- Bacterial Biotransformation [27]: Compound metabolized
- Bacterial Biotransformation [28]: Compound metabolized
- Bacterial Biotransformation [29]: Compound metabolized
SMILES: CC(=O)SCC(Cc1ccccc1)C(=O)NCC(=O)OCc1ccccc1 (centres undefined) [RACECADOTRIL]
